Numbers after ± are expanded uncertainties.
Assays:
[1] = wn = mass fraction of the nth substance listed; conditions: 303.15 K, 91.2 kPa, Liquid, Vibrating tube method
[2] = Liquid; for mass density: 303.15 K, 91.2 kPa, Vibrating tube method; for vapor or sublimation pressure: Ebulliometric method (Recirculating still)

Question: Which mass density ([1]; w2 = 0) does the source give for `O` [water] + [Cl-].[Na+] here?
Answer: Its mass density is 996 ± 2 kg/m3.

Question: For `[Cl-].[Na+]` [sodium chloride] + CCO, which mass density ([1]; w1 = 0.00041) is on record?
Answer: Its mass density is 788 ± 2 kg/m3.

Question: For `OCC(O)CO` [glycerol], which mass density [2] is on record?
Answer: Its mass density is 1255 ± 3 kg/m3.

Question: Which mass density ([1]; w2 = 0) does the source give for `O` [water] + [Cl-].[K+] here?
Answer: Its mass density is 996 ± 2 kg/m3.

Question: What does the source list for `OCC(O)CO` [glycerol] + O?
Answer: mass density ([1]; w1 = 0.1159): 1022 ± 2 kg/m3; mass density ([1]; w1 = 0.2056): 1044 ± 2 kg/m3; mass density ([1]; w1 = 0.3521): 1080 ± 2 kg/m3; mass density ([1]; w1 = 0.4646): 1108 ± 2 kg/m3; mass density ([1]; w1 = 0.5524): 1133 ± 2 kg/m3; mass density ([1]; w1 = 1): 1255 ± 3 kg/m3

Question: Which mass density ([1]; w1 = 0.0318) does the source give for `[Cl-].[Na+]` [sodium chloride] + O here?
Answer: Its mass density is 1018 ± 2 kg/m3.

Question: And the mass density ([1]; w1 = 0.0654)?
Answer: The mass density was 1042 ± 2 kg/m3.

Question: What about the mass density ([1]; w1 = 0.067) of the same compound?
Answer: Its mass density is 1043 ± 2 kg/m3.

Question: And the mass density ([1]; w1 = 0.0949)?
Answer: Its mass density is 1063 ± 2 kg/m3.

Question: And the mass density ([1]; w1 = 0.0974)?
Answer: The mass density was 1065 ± 2 kg/m3.

Question: What about the mass density ([1]; w1 = 0.1232) of the same compound?
Answer: The mass density was 1084 ± 2 kg/m3.

Question: And the mass density ([1]; w1 = 0.1259)?
Answer: Its mass density is 1086 ± 2 kg/m3.

Question: What about the mass density ([1]; w1 = 0.1578) of the same compound?
Answer: The mass density was 1110 ± 2 kg/m3.

Question: And the mass density ([1]; w1 = 0.1772)?
Answer: Its mass density is 1125 ± 2 kg/m3.

Question: What about the mass density ([1]; w1 = 0.2013) of the same compound?
Answer: Its mass density is 1144 ± 3 kg/m3.

Question: And the mass density ([1]; w1 = 0.225)?
Answer: Its mass density is 1163 ± 3 kg/m3.

Question: What about the mass density ([1]; w1 = 0.244) of the same compound?
Answer: Its mass density is 1178 ± 3 kg/m3.

Question: And the mass density ([1]; w1 = 0.2672)?
Answer: The mass density was 1195 ± 3 kg/m3.

Question: With `OCC(O)CO` [glycerol] + CCO as the compound, how does the mass density ([1]; w1 = 0.1529) read?
Answer: Its mass density is 835 ± 2 kg/m3.

Question: And the mass density ([1]; w1 = 0.2901)?
Answer: Its mass density is 888 ± 2 kg/m3.

Question: What about the mass density ([1]; w1 = 0.4124) of the same compound?
Answer: Its mass density is 939 ± 2 kg/m3.

Question: And the mass density ([1]; w1 = 0.5159)?
Answer: The mass density was 985 ± 2 kg/m3.

Question: And the mass density ([1]; w1 = 0.6211)?
Answer: The mass density was 1036 ± 2 kg/m3.

Question: What about the mass density ([1]; w1 = 0.7096) of the same compound?
Answer: Its mass density is 1084 ± 2 kg/m3.

Question: What about the mass density ([1]; w1 = 0.7971) of the same compound?
Answer: Its mass density is 1136 ± 2 kg/m3.

Question: What about the mass density ([1]; w1 = 0.869) of the same compound?
Answer: The mass density was 1174 ± 3 kg/m3.

Question: What about the mass density ([1]; w1 = 0.9357) of the same compound?
Answer: The mass density was 1215 ± 3 kg/m3.

Question: What about the mass density ([1]; w1 = 1) of the same compound?
Answer: Its mass density is 1255 ± 3 kg/m3.

Question: What does the source list for `O` [water]?
Answer: mass density [2]: 996 ± 2 kg/m3; vapor or sublimation pressure ([2]; 327.65 K): 15.32 ± 0.9 kPa; vapor or sublimation pressure ([2]; 337.15 K): 23.61 ± 0.97 kPa; vapor or sublimation pressure ([2]; 341.35 K): 28.46 ± 1.4 kPa; vapor or sublimation pressure ([2]; 344.45 K): 33.81 ± 1.5 kPa; vapor or sublimation pressure ([2]; 348.05 K): 38.36 ± 1.5 kPa; vapor or sublimation pressure ([2]; 351.55 K): 44.42 ± 1.9 kPa; vapor or sublimation pressure ([2]; 355.75 K): 52.9 ± 1.9 kPa; vapor or sublimation pressure ([2]; 358.05 K): 56.84 ± 2.4 kPa; vapor or sublimation pressure ([2]; 361.85 K): 67.25 ± 2.7 kPa; vapor or sublimation pressure ([2]; 365.65 K): 77.55 ± 3 kPa; vapor or sublimation pressure ([2]; 370.05 K): 91.59 ± 3.2 kPa

Question: With `O` [water] + OCC(O)CO as the compound, how does the mass density ([1]; w2 = 0) read?
Answer: The mass density was 996 ± 2 kg/m3.

Question: Which results are given for `[Cl-].[K+]` [potassium chloride] + O?
Answer: mass density ([1]; w1 = 0.0344): 1017 ± 2 kg/m3; mass density ([1]; w1 = 0.053): 1029 ± 2 kg/m3; mass density ([1]; w1 = 0.067): 1038 ± 2 kg/m3; mass density ([1]; w1 = 0.0975): 1058 ± 2 kg/m3; mass density ([1]; w1 = 0.1259): 1077 ± 2 kg/m3; mass density ([1]; w1 = 0.1526): 1095 ± 2 kg/m3; mass density ([1]; w1 = 0.1779): 1113 ± 2 kg/m3; mass density ([1]; w1 = 0.2009): 1129 ± 2 kg/m3; mass density ([1]; w1 = 0.2117): 1137 ± 3 kg/m3; mass density ([1]; w1 = 0.2156): 1140 ± 2 kg/m3; mass density ([1]; w1 = 0.2448): 1161 ± 3 kg/m3; mass density ([1]; w1 = 0.2645): 1176 ± 3 kg/m3

Question: Which mass density [2] does the source give for `CCO` [ethanol] here?
Answer: The mass density was 781 ± 2 kg/m3.

Question: With `CCO` [ethanol] + OCC(O)CO as the compound, how does the mass density ([1]; w2 = 0) read?
Answer: Its mass density is 781 ± 2 kg/m3.

Question: With `CCO` [ethanol] + [Cl-].[Na+] as the compound, how does the mass density ([1]; w2 = 0) read?
Answer: The mass density was 781 ± 2 kg/m3.

From the NIST ThermoML archive (doi:10.1016/j.jct.2016.02.026)
